The target in one assay is T1, F508delCFTR (Homo sapiens, UniProt P13569, DEL508-508).
T1 construct: expressed in transfected cells; host or cells: CFBE41o- (human lung derived epithelial cell line), doxycycline-inducible
Nature of the assay: Cell Surface Expression-Horse Radish Peroxidase (CSE-HRP) assay. The assay is classed as cell-based. The settings on record: CFBE41o-F508delCFTR-HRP cells; for EC50: F508delCFTR cell surface expression, luminescence, 18-24 hours at 33° C., highest concentration 20 μM; for Maximum % activity: maximum at any tested concentration, normalized to on-plate positive control (3 μM). In a few lines: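 CFBE41o- cells expressing doxycycline-induced (0.5 μg/mL, 72 h at 37 °C) F508delCFTR with HRP in the fourth extracellular loop; compounds 8 points, 3-fold from 20 μM, 18-24 h at 33 °C. Surface HRP measured by luminol luminescence, normalised to DMSO and 3 μM reference corrector; EC50 from variable-slope sigmoidal fit of triplicate plates.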

In the next assay the target is T2, F508del/F508del CFTR (Homo sapiens, UniProt P13569, DEL508-508).
T2 construct: cells isolated from CF patients with the homozygous mutation; endogenous in cells; host or cells: primary human bronchial epithelial (hBE) cells from F508del/F508del CF patients
T2 sequence (P13569 with tags, fused parts or gaps DEL508-508): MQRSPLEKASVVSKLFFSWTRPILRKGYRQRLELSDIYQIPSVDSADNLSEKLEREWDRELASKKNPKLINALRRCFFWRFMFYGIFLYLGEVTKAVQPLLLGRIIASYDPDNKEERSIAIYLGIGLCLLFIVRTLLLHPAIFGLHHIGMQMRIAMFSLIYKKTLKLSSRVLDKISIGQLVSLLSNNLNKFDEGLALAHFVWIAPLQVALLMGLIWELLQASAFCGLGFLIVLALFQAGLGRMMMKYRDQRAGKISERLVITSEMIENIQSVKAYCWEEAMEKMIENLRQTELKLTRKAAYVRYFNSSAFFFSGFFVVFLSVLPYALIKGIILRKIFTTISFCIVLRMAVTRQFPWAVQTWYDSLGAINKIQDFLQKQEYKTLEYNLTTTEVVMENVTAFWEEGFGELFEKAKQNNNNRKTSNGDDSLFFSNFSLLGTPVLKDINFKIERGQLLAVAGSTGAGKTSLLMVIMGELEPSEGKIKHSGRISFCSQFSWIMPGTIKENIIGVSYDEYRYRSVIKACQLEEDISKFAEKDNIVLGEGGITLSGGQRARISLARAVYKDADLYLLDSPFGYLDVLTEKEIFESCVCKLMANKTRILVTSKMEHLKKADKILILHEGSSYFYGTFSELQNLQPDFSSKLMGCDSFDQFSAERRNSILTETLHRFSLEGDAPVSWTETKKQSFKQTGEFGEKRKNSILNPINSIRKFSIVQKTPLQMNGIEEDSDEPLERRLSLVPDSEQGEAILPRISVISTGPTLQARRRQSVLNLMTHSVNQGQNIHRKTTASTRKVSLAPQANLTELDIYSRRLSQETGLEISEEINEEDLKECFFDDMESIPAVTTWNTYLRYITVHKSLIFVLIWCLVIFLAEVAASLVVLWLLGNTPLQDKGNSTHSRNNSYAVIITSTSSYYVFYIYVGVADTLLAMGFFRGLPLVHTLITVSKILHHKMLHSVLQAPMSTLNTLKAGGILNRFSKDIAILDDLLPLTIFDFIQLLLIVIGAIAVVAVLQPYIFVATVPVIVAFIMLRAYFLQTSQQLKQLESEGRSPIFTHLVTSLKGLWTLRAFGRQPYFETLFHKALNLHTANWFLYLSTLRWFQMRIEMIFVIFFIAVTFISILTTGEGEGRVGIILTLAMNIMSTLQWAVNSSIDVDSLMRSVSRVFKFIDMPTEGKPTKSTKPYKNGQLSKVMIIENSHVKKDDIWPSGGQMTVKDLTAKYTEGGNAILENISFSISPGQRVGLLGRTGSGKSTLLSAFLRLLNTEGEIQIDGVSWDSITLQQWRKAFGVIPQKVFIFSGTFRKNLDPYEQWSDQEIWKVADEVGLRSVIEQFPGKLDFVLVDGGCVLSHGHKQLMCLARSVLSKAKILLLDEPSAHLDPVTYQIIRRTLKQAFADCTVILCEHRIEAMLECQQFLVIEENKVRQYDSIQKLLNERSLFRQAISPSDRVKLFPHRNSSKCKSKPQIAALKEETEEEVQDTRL
Nature of the assay: Transepithelial Clamp Circuit (TECC-24) conductance assay on primary human bronchial epithelial cells (hBE-TECC). The assay is classed as cell-based. The settings on record: for EC50: equivalent short circuit current, 18-24 hours at 37° C., with control potentiator; for Maximum % activity: relative to positive control (3 μM) coupled with control potentiator. From the text: Transepithelial Clamp Circuit on Human Bronchial Epithelial Cells Conductance Assay:
A cell based assay using the primary human bronchial epithelial cells (hBE) was used as a secondary assay to test novel F508delCFTR correctors for their activity on primary hBE cells with F508del/F508del CFTR mutation. The assay used a TECC-24 (Transepithelial Clamp Circuit for 24 wells) instrument that measures the functionality of the mutated channel by measuring the equivalent short circuit current (Ieq) generated by the polarized epithelial cells. The instrument works by measuring the transepithelial potential difference (Vt) and transepithelial resistance (Rt) in an open circuit format, and the Ieq is calculated by using Ohms law (Ieq=Vt/Rt). The assay was run in a 24-well format and all 24-wells were measured at the same time point giving a higher throughput for this assay.
Primary human bronchial epithelial (hBE) cells from F508del/F508delCFTR patients were expanded from 1×10^6 to 250×10^6 cells (Neuberger T, Burton B, Clark H and VanGoor F; Cystic Fibrosis, Methods in Mole Biol 741; eds. Amaral M D and Kunzelmann K, 2011). For this purpose, cells isolated from CF patients with the homozygous mutation were seeded onto 24 well Corning (Cat #3378) filter plates that were coated with 3T3 conditioned media and grown at an air-liquid interface for 35 days using an Ultroser® G supplemented differentiation media. Apical surface mucus was removed 72 hours before the experiment using 3 mM dithiothreitol (DTT) in phosphate buffered saline (PBS). The apical surface was washed again 24 hours before the experiment using PBS. The cells were incubated with the desired dose response of the corrector compounds 18-24 hours at 37° C., 5% CO2. The corrector compounds are only added on the basolateral side of the epithelial cells.
On the day of measuring the corrector activity on the TECC, the cells were switched into a bicarbonate and serum free F-12 Coon's medium and allowed to equilibrate for 30 minutes in a CO2 free incubator. At the time of measurement, the apical and basolateral sides of the filter were bathed with the F-12 Coon's modification media (with 20 mM 4-(2-hydroxyethyl)-1-piperazineethanesulfonic acid (HEPES), pH 7.4 (using 1 M tris(hydroxymethyl)aminomethane (Tris)), and the measurements were made at 36.5° C. Transepithelial voltage (Vt) and transepithelial resistance (Rt) were measured using a 24 channel transepithelial current clamp (TECC-24). Current responses to the sequential addition of benzamil (apical 6 μM addition; for inhibiting epithelial ENaC channel), forskolin (apical and basolateral 10 μM addition; for activating the CFTR channel), control potentiator (N-(3-carbamoyl-5,5,7,7-tetramethyl-4,7-dihydro-5H-thieno[2,3-c]pyran-2-yl)-1H-pyrazole-5-carboxamide; apical and basolateral 1 μM addition; for potentiating the CFTR channel) and bumetanide (basolateral 20 μM addition; for inhibiting the Na:2Cl:K co-transporter, an indirect measure of inhibiting the Cl— secretion driven by CFTR channel) were measured.
All plates contained negative controls (dimethyl sulfoxide, DMSO) which coupled with the control potentiator (N-(3-carbamoyl-5,5,7,7-tetramethyl-4,7-dihydro-5H-thieno[2,3-c]pyran-2-yl)-1H-pyrazole-5-carboxamide) sets the null response and positive controls (3 μM of 3-[(2R,4R)-4-({[1-(2,2-difluoro-1,3-benzodioxol-5-yl)cyclopropyl]carbonyl}amino)-7-methoxy-3,4-dihydro-2H-chromen-2-yl]benzoic acid) coupled with the control potentiator sets the 100% response to measure the correction of the mutated CFTR channel. The maximum percent activity is reported relative to the positive control value.
The % activity measured at each of the 6 test concentrations of the test compound was normalized to the on-plate positive control using the following formula: % activity=[(test compound response−DMSO response)/(positive control response−DMSO response)]*100 […]

T1 sequence (P13569 with tags, fused parts or gaps DEL508-508): as above

The EC50 is the concentration that produces a half-maximal response. As for `COc1ccc2c(c1)O[C@@H]([C@H]1CC[C@H](C(=O)O)CC1)C[C@H]2NC(=O)C1(c2ccc3c(c2)OC(F)(F)O3)CC1` [Example 11, trans-4-[(2R,4R)-4-{[1-(2,2-difluoro-2H-1,3-benzodioxol-5-yl)cyclopropane-1-carbonyl]amino}-7-methoxy-3,4-dihydro-2H-1-benzopyran-2-yl]cyclohexane-1-carboxylic acid], on F508delCFTR, the EC50 worked out at 310 nM and the Maximum % activity is 124.5%. At F508del/F508del CFTR, the EC50 is 21 nM and the Maximum % activity is recorded as 104.3%.
As for `O=C(N[C@@H]1C[C@H]([C@H]2CC[C@H](C(=O)O)CC2)Oc2cc(OC(F)(F)F)ccc21)C1(c2ccc3c(c2)OC(F)(F)O3)CC1` [Example 13, trans-4-[(2R,4R)-4-{[1-(2,2-difluoro-2H-1,3-benzodioxol-5-yl)cyclopropane-1-carbonyl]amino}-7-(trifluoromethoxy)-3,4-dihydro-2H-1-benzopyran-2-yl]cyclohexane-1-carboxylic acid], the EC50 was 30 nM at F508delCFTR and 4 nM on F508del/F508del CFTR. Also, the results for the Maximum % activity on F508delCFTR and on F508del/F508del CFTR were 124.0% and 117.5%, respectively.
On the same counts, the results for `O=C(N[C@@H]1C[C@H]([C@H]2CC[C@@H](C(=O)O)CC2)Oc2cc(OC(F)F)ccc21)C1(c2ccc3c(c2)OC(F)(F)O3)CC1` [Example 15A, cis-4-[(2R,4R)-4-{[1-(2,2-difluoro-2H-1,3-benzodioxol-5-yl)cyclopropane-1-carbonyl]amino}-7-(difluoromethoxy)-3,4-dihydro-2H-1-benzopyran-2-yl]cyclohexane-1-carboxylic acid] are 530 nM, 573 nM, 94.7% and 92.0%.
On the same counts, the results for `O=C(N[C@@H]1C[C@H]([C@H]2CC[C@H](C(=O)O)CC2)Oc2cc(OC(F)F)ccc21)C1(c2ccc3c(c2)OC(F)(F)O3)CC1` [Example 15B, trans-4-[(2R,4R)-4-{[1-(2,2-difluoro-2H-1,3-benzodioxol-5-yl)cyclopropane-1-carbonyl]amino}-7-(difluoromethoxy)-3,4-dihydro-2H-1-benzopyran-2-yl]cyclohexane-1-carboxylic acid] are 110 nM, 30 nM, 125.5% and 109.6%.

(Values after patent US10118916B2, “Modulators of cystic fibrosis transmembrane conductance regulator protein” (AbbVie S.à.r.l., priority 2016, dated 2018).)
